Results from ChEMBL document CHEMBL1122678, “Structural correlations of choline acetyltransferase inhibitors: trans-N-(carboxymethyl)-4-(beta-1-naphthylvinyl)pyridinium bromide and cis-N-(2-aminoethyl)-4-(beta-1-naphthylvinyl)-3-methylpyridinium bromide hydrobromide” (J Med Chem, 1984).

Experiments:
[1] = (§1) Inhibitory activity was determined; conditions: read-out: I50
[2] = as §1

IC50 [1]	I23 [2]	SMILES
25 µM	–	C(=C\c1cccc2ccccc12)/c1ccncc1
50 µM	–	C(=C\c1cccc2ccccc12)/c1ccncc1 (stereo in doubt; cis) [listing 1 of 2 here]
–	400 µM	C(=C\c1cccc2ccccc12)/c1ccncc1 (stereo in doubt; cis) [listing 2 of 2 here]
5 µM	–	C(=C\c1cccc2ccccc12)/c1ccncc1 (stereo in doubt; trans)
